Data reported in patent publication US8268816B2, “Compounds for modulating integrin CD11b/CD18” (priority 2006, dated 2012).

Columns and labels:
integrin CD11b/CD18 = biological target: T1, integrin CD11b/CD18 (Homo sapiens, UniProt P05107+P11215); experiment: no-wash cell adhesion assay for agonists: K562 CD11b/CD18 cells on fibrinogen in TBS++; assay type: cell-based
T1 construct: expressed in transfected cells
Protocol: Maxisorp microtiter plates (96- and 384-well) were coated with 1-20 μg/mL fibrinogen (Fg) ligand in PBS^++ overnight at 4° C. Subsequently, the Fg-coated wells were washed with TBS and non-specific sites were blocked by incubation with 2% non-fat milk in TBS at room temperature for 30 min. Next, the wells were washed three times with TBS and the coated microtiter plates were used in the HTS assays.
All the adhesion assays were carried out in the screening facility at the Institute of Chemistry and Cell Biology (ICCB), Harvard Medical School using the available small molecule libraries and equipment. Actimol Timtec 1 small molecule library (6,612 compounds) has been previously described (http://iccb.med.harvard.edu/screening/compound_libraries). The small molecule library is stocked in 384-well plates at −80° C. and as sealed plates, with each well's containing a unique compound dissolved in DMSO at approximately 5 mg/mL. […] Adherent cells were quantitated using either cell viability measuring reagents or automated imaging (see below).
For quantitation of adherent cells using a cell viability measuring kit (such as MTS-based CellTiter-One (Promega), CyQuant (Molecular Probes) or Luciferase-based CellTiter-Glo (Promega)), the non-adherent cells were removed by complete aspiration using an automated liquid handling machine (ELx405, Bio-Tek Instruments, VT) and the assay reagent added according to manufacturer's instructions. For automated imaging based quantitation of adherent cells, the non-adherent cells were fixed by adding a small volume of formaldehyde (1.1% v/v final concentration) and the plates were kept inverted for an additional 1 h. Upon cell fixation, the wells were washed with TBS using automated liquid handling machine (ELx405) and the adherent cells were fluorescently labeled with DAPI (0.5 μM final in TBS with 0.1% TritonX-100) and quantitated using automated microscope (see below).
CellWorx automated microscope (Cellomics, Pa.) was set at 0.3 s exposure using DAPI filter set to capture 1-3 images per well. […] Data output files were analyzed using MS Excel. […]

integrin CD11a/CD18 = biological target: T2, integrin CD11a/CD18 (Homo sapiens, UniProt P05107+P20701); experiment: adhesion of K562 CD11a/CD18 cells to ICAM1-Fc in TBS++; assay type: cell-based; conditions: dose-response, increasing amounts of small molecule
T2 construct: expressed in transfected cells; host or cells: K562 cells stably expressing CD11a/CD18
T2 sequence (P20701 26-1170): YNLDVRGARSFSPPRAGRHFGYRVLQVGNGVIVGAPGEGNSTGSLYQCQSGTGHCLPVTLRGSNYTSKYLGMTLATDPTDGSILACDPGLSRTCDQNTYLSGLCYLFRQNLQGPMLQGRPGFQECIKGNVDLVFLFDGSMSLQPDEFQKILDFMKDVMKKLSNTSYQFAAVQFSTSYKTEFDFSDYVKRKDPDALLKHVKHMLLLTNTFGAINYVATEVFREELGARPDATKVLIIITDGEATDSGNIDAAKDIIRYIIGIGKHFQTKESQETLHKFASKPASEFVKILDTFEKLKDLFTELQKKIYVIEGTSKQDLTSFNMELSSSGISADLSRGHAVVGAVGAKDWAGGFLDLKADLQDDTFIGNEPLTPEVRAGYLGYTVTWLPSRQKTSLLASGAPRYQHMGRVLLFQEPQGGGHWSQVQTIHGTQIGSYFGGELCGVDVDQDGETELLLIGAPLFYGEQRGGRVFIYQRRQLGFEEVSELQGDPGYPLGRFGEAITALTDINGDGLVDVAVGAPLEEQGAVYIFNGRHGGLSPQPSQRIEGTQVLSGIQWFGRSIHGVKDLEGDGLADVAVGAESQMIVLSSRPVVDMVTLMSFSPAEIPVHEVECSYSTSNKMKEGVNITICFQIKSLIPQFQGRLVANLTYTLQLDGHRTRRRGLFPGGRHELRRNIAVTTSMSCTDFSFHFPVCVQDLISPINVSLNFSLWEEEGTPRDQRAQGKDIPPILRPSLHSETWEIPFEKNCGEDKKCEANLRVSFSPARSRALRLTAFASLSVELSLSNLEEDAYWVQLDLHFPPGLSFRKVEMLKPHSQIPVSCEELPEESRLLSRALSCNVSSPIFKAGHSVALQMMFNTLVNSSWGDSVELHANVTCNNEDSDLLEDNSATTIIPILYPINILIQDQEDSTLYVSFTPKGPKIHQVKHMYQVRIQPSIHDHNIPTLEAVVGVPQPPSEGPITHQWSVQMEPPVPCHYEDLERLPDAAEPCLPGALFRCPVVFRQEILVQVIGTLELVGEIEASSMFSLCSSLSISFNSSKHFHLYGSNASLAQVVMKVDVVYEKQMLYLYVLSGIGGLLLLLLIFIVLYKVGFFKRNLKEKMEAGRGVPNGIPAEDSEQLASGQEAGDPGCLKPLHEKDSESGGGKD
T2 sequence (P05107 23-769): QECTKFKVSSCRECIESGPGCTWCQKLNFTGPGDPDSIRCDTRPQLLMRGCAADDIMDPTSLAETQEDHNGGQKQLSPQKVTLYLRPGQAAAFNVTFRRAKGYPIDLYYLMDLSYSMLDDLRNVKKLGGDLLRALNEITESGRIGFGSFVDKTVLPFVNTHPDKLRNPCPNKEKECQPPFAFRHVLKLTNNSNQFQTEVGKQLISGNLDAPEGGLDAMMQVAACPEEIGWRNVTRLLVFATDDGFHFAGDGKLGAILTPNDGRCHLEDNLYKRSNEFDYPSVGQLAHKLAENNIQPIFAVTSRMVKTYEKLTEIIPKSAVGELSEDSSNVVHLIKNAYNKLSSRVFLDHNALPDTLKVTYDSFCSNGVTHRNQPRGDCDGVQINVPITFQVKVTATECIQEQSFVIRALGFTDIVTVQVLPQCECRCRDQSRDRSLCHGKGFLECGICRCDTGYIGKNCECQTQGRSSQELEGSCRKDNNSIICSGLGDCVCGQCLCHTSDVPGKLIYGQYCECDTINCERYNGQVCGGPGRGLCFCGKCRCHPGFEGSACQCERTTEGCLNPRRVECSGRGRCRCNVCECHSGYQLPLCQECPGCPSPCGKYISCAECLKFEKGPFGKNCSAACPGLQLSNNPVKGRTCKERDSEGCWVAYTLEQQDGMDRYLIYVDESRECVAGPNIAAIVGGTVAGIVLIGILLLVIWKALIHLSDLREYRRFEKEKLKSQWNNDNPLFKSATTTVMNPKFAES
Protocol: Maxisorp microtiter plates (384-well) were coated with 1-20 μg/mL fibrinogen (Fg), 4 μg/mL iC3b or 0.375 μg/mL ICAM1-Fc ligands in PBS^++ overnight at 4° C.
For the adhesion assay in 384-well plates, the K562 cells were washed with TBS and cells (30,000/well) were transferred to the ligand-coated wells (Fg for CD11b/CD18 and ICAM1-Fc (R&D Systems, Minneapolis, Minn.) for CD11a/CD18) of microtiter plates in the assay buffer (TBS containing 1 mM each of Ca^2+ and Mg^2+ (TBS^++). Compounds were transferred to each well and the assay plates were incubated at 37° C. in the presence of small molecule compounds and were incubated with small molecules for 30 min. In order to dislodge the non-adherent cell, the assay plates were gently inverted and kept in the inverted position for 20 min at room temperature. Adherent cells were quantified using either cell viability measuring reagents or automated imaging (see below).

[1] = system: thioglycolate-induced peritonitis mouse model; experiment: thioglycolate-induced peritonitis, neutrophil influx into the peritoneum; assay type: in vivo, C57BL6 mice; conditions: 4 μg i.v. about 5 min after i.p. 4% thioglycolate, lavage at 12 h, flow cytometry
Protocol: The wild-type (WT) C57BL6 mice of approximately six weeks of age were purchased from Charles River Labs (Boston, Mass.). Mice were injected intraperitoneally with 1 mL of 4% w/v sterile thioglycolate (TG) (Sigma, St. Louis, […].) in PBS. Control mice were injected with PBS alone. Approximately five minutes after TG injection, 4 μg each of compounds IMB-8, -6 or -11 were administered in 0.5 mL PBS through a tail vein injection. Twelve hours post-injection, the percentage of infiltrated neutrophils in the peritoneal lavage was determined using flow cytometry. Cells from the lavage fluid were labeled with FITC-labeled anti-mouse GR1 and PE-labeled anti-mouse CD11b antibodies (BD Pharmingen, Jan Jose, Calif.) and analyzed using FACS Calibur flow cytometer.

T1 sequence (P05107 23-769, other chains not shown): as the sequence (P05107 23-769) above

SMILES: N=C1SC(=Cc2ccco2)C(=O)N1c1nccs1 [Compound 9]
- EC50 (integrin CD11b/CD18; secondary screen, read-out: EC50, concentration required for half-maximal increase in cell-adhesion): ~6.7 µM

SMILES: Cc1ccccc1N1C(=O)/C(=C/C=C/c2ccccc2)SC1=S [IMB-10, reference compound]
- adhesion of K562 cells stably expressing integrin CD11b/CD18 to fibrinogen (integrin CD11b/CD18; dose-response, increasing amounts of small molecule, TBS++): increased equally well the adhesion
- adhesion of K562 cells stably expressing integrin CD11a/CD18 to ICAM1 (integrin CD11a/CD18): increased equally well the adhesion

SMILES: O=C1CSC(NC(=O)N2c3ccccc3Sc3ccccc32)=N1 [Compound 11]
- selectivity for integrin CD11b/CD18 over integrin CD11a/CD18 in cell adhesion (integrin CD11b/CD18; K562 CD11b/CD18 on fibrinogen versus K562 CD11a/CD18 on ICAM1): selectively increased adhesion
- neutrophil influx into the peritoneum due to TG injection [1]: reduce leukocyte recruitment
- neutrophil influx into the peritoneum due to TG injection ([1]; listed as compound 11): remarkable decrease
